Reference: article PMC8480782, “Efficient Dimerization Disruption of Leishmania infantum Trypanothione Reductase by Triazole-phenyl-thiazoles” (Journal of Medicinal Chemistry, 2021)
Values joined by “and” are separate entries in the source; they are usually repeats but may differ in a detail not shown here. Identical values can stand only once. “Also recorded” adds a separate entry of the source. Like-named read-outs stand apart in the source and are kept apart here.

Key:
LiTryR = target: T1, LiTryR (Leishmania infantum, UniProt A4HSF7); test: Time-dependent inhibition kinetics of LiTryR (modified DTNB-coupled assay); type: biochemical; details: for mechanism of LiTryR inhibition: reaction progress curves / kinetic analysis; for α* (overall two-step process): fit to eq 4; for α (initial EI complex): fit to eq 3
T1 construct: HIS (N); made in house; host or cells: E. coli BL21 (DE3) Rossetta
T1 sequence (A4HSF7 1-491): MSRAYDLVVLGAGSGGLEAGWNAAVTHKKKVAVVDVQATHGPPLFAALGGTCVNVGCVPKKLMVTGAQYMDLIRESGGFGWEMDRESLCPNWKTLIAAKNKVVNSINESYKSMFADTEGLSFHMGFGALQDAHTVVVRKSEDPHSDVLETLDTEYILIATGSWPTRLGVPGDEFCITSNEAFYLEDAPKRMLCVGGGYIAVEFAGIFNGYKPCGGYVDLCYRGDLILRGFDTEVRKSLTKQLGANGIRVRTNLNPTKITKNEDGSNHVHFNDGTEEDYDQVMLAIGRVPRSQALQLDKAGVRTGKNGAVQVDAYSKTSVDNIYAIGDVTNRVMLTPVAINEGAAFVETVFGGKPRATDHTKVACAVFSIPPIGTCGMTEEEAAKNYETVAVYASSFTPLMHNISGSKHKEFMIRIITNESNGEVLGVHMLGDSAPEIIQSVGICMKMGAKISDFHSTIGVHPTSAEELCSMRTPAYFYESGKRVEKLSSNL
Experimental: The inhibitory constants Ki and Ki* for 19a were calculated following a slightly modified version of the standard DTNB-coupled assay.[52] TS2 was serially diluted (sixfold dilution from 1666 to 52 μM) in a buffer containing 40 mM HEPES (pH 7.5) and 1 mM EDTA. The different TS2 solutions were dispensed (15 μL) in a 96-well microplate. 19a was serially diluted in DMSO (sixfold dilution from 1875 to 445 μM). […] These mixtures (180 μL) were subsequently added to the appropriate wells previously filled with different TS2 solutions. The assay was initiated by addition of 55 μL of buffer containing 40 mM HEPES (pH 7.5), 1 mM EDTA, 272.73 μM NADP^+, 0.01% glycerol, and 3.5 nM recombinant LiTryR using an automated dispensing system (PerkinElmer, Waltham, MA). The order of addition was essential to avoid enzyme preincubation with the inhibitor or the substrates. […] TryR oxidoreductase activity was monitored at 26 °C by an increase in absorbance at 412 nm in an EnSpire Multimode Plate Reader (PerkinElmer, Waltham, MA). Coupling an automated dispenser module to the spectrophotometer enabled real-time detection of the enzymatic reaction, which was crucial for high-quality nonlinear fits of the experimental data and, especially, to estimate the initial velocity of the progress curves in the presence of 19a. To guarantee linearity of the enzyme reaction in the absence of an inhibitor, the analysis was performed with data obtained during the first 20 000 s to avoid TS2 depletion. […] All of the assays were conducted in three independent experiments.
kobs values were estimated for every 19a concentration at all TS2 concentrations by fitting the values of the TNB concentration produced during each enzymatic reaction to eq 1.[42b],[53] [drawing 2] 1 where vi and vs are the initial and the steady-state velocities, respectively, kobs is the apparent first-order rate constant for the conversion of vi into the steady-state velocity (vs), and d is a parameter that indicates the displacement of the curve on the vertical ordinate and takes into account any nonzero value of the measured signal at time zero caused by some of the reagents. The apparent inhibition constants (Ki^app and Ki*^app) for each TS2 concentration were determined by fitting the kobs values obtained at different 19a concentrations to eq 2 [drawing 3] 2 where Ki^app is the apparent value of the Ki for the initial encounter complex (EI) and Ki*^app is the apparent value of the overall inhibition constant Ki* to form a higher-affinity complex (E*I). k6 is the first-order rate constant that defines the reverse isomerization step that returns E*I to EI.[42a],[53]
The Ki value for the formation of the EI complex was determined by fitting the Ki^app values obtained at different TS2 concentrations to eq 3. In addition, this graph was used to assess the inhibition modality of 19a during the first equilibrium of its two-step binding mechanism. […] In addition, this graph was used to assess the overall inhibition modality of 19a during its two-step binding mechanism. As explained above, the value obtained for α defines the mode of inhibition.[42a] [drawing 5] 4
Figure S1. […]
Lineweaver–Burk plots of reciprocal initial velocities ( vi) versus reciprocals of four TS2

[1] = system: L. infantum intracellular amastigotes; test: Leishmanicidal activity in amastigote-infected THP-1 monocyte-derived macrophages; type: cell-based, Leishmania infantum
Experimental: THP-1 monocytes were seeded in a 48-well plate at a concentration of 5 × 10^5 cells/mL (250 μL/well) in RPMI complete medium supplemented with phorbol 12-myristate 13-acetate (PMA) (100 ng/mL). Differentiation of THP-1 monocytes to macrophages was allowed for 24 h at 37 °C and 5% CO2. THP-1-derived macrophages were infected with GFP-expressing axenic amastigotes at 5 × 10^6 parasites/mL in RPMI complete medium for 24 h (250 μL/well). Extracellular amastigotes were washed twice with PBS. The remaining extracellular parasites were challenged for 24 h with THP-1 medium supplemented with 10% horse serum (Gibco) instead of FCS. Cells were washed twice with PBS, and treatments were performed in 250 μL of fresh RPMI medium supplemented with 10% horse serum for 72 h at 37 °C and 5% CO2. Afterward, treatments were removed by two PBS washes. Lysis of infected cells was performed with 120 μL of SDS 0.005% (w/v) in PBS. After a 30 min incubation at 37 °C, lysis was stopped by adding RPMI complete medium with PI at 20 μg/mL (120 μL/well). The lysates were transferred to a 96-well plate (200 μL/well), and the GFP^+ amastigotes extracted from the infected cells were acquired by a Beckman Coulter FC500 flow cytometer. Each sample (100 μL) was acquired for 20 s.
The relative number of GFP^+ intracellular amastigotes per cell in each sample was estimated after the division of the total number of GFP+ amastigotes by the LDH activity value of the sample. Results were normalized to the vehicle-treated controls. EC50 values of intracellular amastigotes were calculated using a nonlinear regression model with GraFit 6 software (Erithacus, Horley, Surrey, U.K.). All of the assays were conducted in at least three independent experiments.

[2] = system: L. infantum promastigotes; test: Leishmanicidal activity on promastigotes (PI exclusion, flow cytometry); type: cell-based, Leishmania infantum; details: for SIp (ratio of EC50 against human cells to EC50 against promastigotes): HepG2 / promastigotes; for EC50: Leishmania infantum
In short: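 Log-phase L. infantum promastigotes (MCAN/ES/89/IPZ229/1/89) at 2 × 10^6 parasites/mL in RPMI-1640 with 10% FCS, pH 7.2, were drug-treated for 24 h at 26 °C. Viability was scored by flow cytometric propidium iodide exclusion, and EC50 was derived by nonlinear regression.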

[3] = Leishmania infantum, THP-1, 72 h, read-out: EC50 intracellular amastigotes, amastigote-infected THP-1 macrophages, 72 h
[4] = 24 h at 26 °C, read-out: EC50 promastigotes
[5] = promastigotes or amastigotes (either form), read-out: EC50 against Leishmania promastigotes or amastigotes
[6] = Leishmania infantum, THP-1, 72 h, amastigote-infected THP-1 macrophages, 72 h, read-out: EC50 intracellular amastigotes
[7] = fit of Ki*^app to eq 4, read-out: Ki* (overall two-step process)
[8] = two-step mechanism, fit of Ki^app to eq 3, read-out: Ki (initial EI complex)

Structure (SMILES)	mechanism of LiTryR inhibition (LiTryR)	EC50 [1, 3] [µM]	SIp (ratio of EC50 against human cells to EC50 against promastigotes) [2]	EC50 [2, 4] [µM]	EC50 [1, 6] [µM]	further results
NCCCCc1cn(-c2ccc(-c3nc(CCc4ccc5oc6ccccc6c5c4)cs3)c(OCCN3CCNC3=O)c2)nn1.O=C(O)C(F)(F)F [12s]	slow-binding inhibitors	–	–	–	–	–
NCCCCc1cn(-c2ccc(-c3nc(CCc4ccc(-c5ccccc5)cc4)cs3)c(OCCN3CCNC3=O)c2)nn1.O=C(O)C(F)(F)F [12c, 1-(2-(2-(4-(2-([1,1′-Biphenyl]-4-yl)ethyl)thiazol-2-yl)-5-(4-(4-ammoniumbutyl)-1H-1,2,3-triazol-1-yl)phenoxy)ethyl)imidazolidin-2-one 2,2,2-Trifluoroacetate]	slow-binding inhibitors	46.5 ± 1.5	8.8	4.9 ± 0.4	–	EC50 [2, 5]: < 10 µM
NCCNCc1nccn1-c1ccc(-c2nc(CCc3ccc4ccccc4c3)cs2)c(OCCN2CCNC2=O)c1 [compound 2, reference compound]	–	–	2.1/2.1	12.8 ± 0.7	> 75	–
NCCCc1cn(-c2ccc(-c3nc(CCc4ccc(-c5ccccc5)cc4)cs3)c(OCCN3CCNC3=O)c2)nn1.O=C(O)C(F)(F)F [12i]	–	–	10.4	5.8 ± 0.7	54.5	EC50 ([1]; amastigote-infected THP-1 macrophages, 72 h, read-out: EC50 intracellular amastigotes): 54.4 ± 15.5 µM
NCCCCc1cn(-c2ccc(-c3nc(-c4ccccc4)c(-c4ccccc4)s3)c(OCCN3CCNC3=O)c2)nn1.O=C(O)C(F)(F)F [19a, 1-(2-(5-(4-(4-Ammoniobutyl)-1H-1,2,3-triazol-1-yl)-2-(4,5-diphenylthiazol-2-yl)phenoxy)ethyl)imidazolidin-2-one 2,2,2-Trifluoroacetate]	slow-binding inhibitors; also recorded: nonlinear noncompetitive hyperbolic inhibition mechanism	–	2.5	10.7 ± 1.3	–	β, noncompetitive hyperbolic inhibition mechanism (LiTryR; DTNB-coupled assay, initial velocities, alpha value of 1): 0.5 ± 0.1; Ki (LiTryR; DTNB-coupled assay, initial velocities, alpha value of 1, read-out: Ki, noncompetitive hyperbolic inhibition mechanism): 12.7 ± 3.5 µM; Ki (LiTryR; [TS2] 3.1 μM, read-out: Ki*^app): 0.6 ± 0.1 µM; Ki (LiTryR; [TS2] 3.1 μM, read-out: Ki^app): 8.9 ± 3.1 µM; Ki (LiTryR; [TS2] 6.2 μM, read-out: Ki*^app): 0.5 ± 0.1 µM; Ki (LiTryR; [TS2] 6.2 μM, read-out: Ki^app): 7.2 ± 1.7 µM; Ki (LiTryR; [TS2] 12.5 μM, read-out: Ki*^app): 0.5 ± 0.2 µM; Ki (LiTryR; [TS2] 12.5 μM, read-out: Ki^app): 5.2 ± 2.6 µM; Ki (LiTryR; [TS2] 25 μM, read-out: Ki*^app): 0.8 ± 0.2 µM; Ki (LiTryR; [TS2] 25 μM, read-out: Ki^app): 8.3 ± 3 µM; Ki (LiTryR; [TS2] 50 μM, read-out: Ki*^app): 1.4 ± 0.3 µM; Ki (LiTryR; [TS2] 50 μM, read-out: Ki^app): 9.3 ± 3.2 µM; Ki (LiTryR; [TS2] 100 μM, read-out: Ki*^app): 1.3 ± 0.6 µM; Ki (LiTryR; [TS2] 100 μM, read-out: Ki^app): 5 ± 2.7 µM; Ki (LiTryR; [7]): 0.5 ± 0.1 µM; α* (overall two-step process) (LiTryR): 5.5 ± 2.9; k6, value selected as conservative upper value (LiTryR; fixed for fitting to eq 2): ≤ 3 × 10^–5 s^–1; Ki (LiTryR; [8]): 7.8 ± 1.7 µM; α (initial EI complex) (LiTryR; two-step mechanism): 0.8 ± 0.4
NCCCCc1cn(-c2ccc(-c3nc(CCc4ccc5ccccc5c4)cs3)c(OCCN3CCNC3=O)c2)nn1.O=C(O)C(F)(F)F [12b, 1-(2-(5-(4-(4-Ammoniumbutyl)-1H-1,2,3-triazol-1-yl)-2-(4-(2-(naphthalen-2-yl)ethyl)thiazol-2-yl)phenoxy)ethyl)imidazolidin-2-one 2,2,2-Trifluoroacetate]	slow-binding inhibitors; also recorded: two-step process of enzyme isomerization	> 75	4.0	8.4 ± 0.3	–	EC50 [2, 5]: < 10 µM; Ki (LiTryR; [7]): 2.6 ± 0.6 µM; α* (overall two-step process) (LiTryR): 1.3 ± 0.6; Ki (LiTryR; [8]): 10 ± 2.7 µM; α (initial EI complex) (LiTryR; two-step mechanism): 2.0 ± 1.3
NCCCCc1cn(-c2ccc(-c3nc(CCc4ccc5c(c4)CCCN5)cs3)c(OCCN3CCNC3=O)c2)nn1.O=C(O)C(F)(F)F.O=C(O)C(F)(F)F [12q]	single-step binding mechanism	–	–	–	> 75	α, reversible single-step mechanism of time-dependent inhibition (LiTryR; single-step mechanism (Scheme S4)): 0.3 ± 0.2; Ki (LiTryR; single-step mechanism (Scheme S4), read-out: Ki, reversible single-step mechanism of time-dependent inhibition): 13.6 ± 5.1 µM
NCCCCc1cn(-c2ccc(-c3nc(-c4ccccc4)cs3)c(OCCN3CCNC3=O)c2)nn1.O=C(O)C(F)(F)F [12n]	–	–	–	5.4 ± 0.08	–	EC50 [2, 5]: < 10 µM
NCCCCc1cn(-c2ccc(-c3nc(-c4cccc(-c5csc(-c6ccc(-n7cc(CCCCN)nn7)cc6OCCN6CCNC6=O)n5)c4)cs3)c(OCCN3CCNC3=O)c2)nn1.O=C(O)C(F)(F)F.O=C(O)C(F)(F)F [compound 22, 1,1′-((((1,3-Phenylenebis(thiazole-4,2-diyl))bis(5-(4-(4-ammoniobutyl)-1H-1,2,3-triazol-1-yl)-2,1-phenylene))bis(oxy))bis(ethane-2,1-diyl))bis(imidazolidin-2-one)bis(2,2,2-trifluoroacetate)]	–	22	8.0	3.8 ± 0.1	–	SI (intracellular amastigotes) ([1]; THP-1 / intracellular amastigotes): 2.2; EC50 ([1]; read-out: EC50 intracellular amastigotes, amastigote-infected THP-1 macrophages, 72 h): 22.2 ± 6.4 µM
NCCCCc1cn(-c2ccc(-c3nc(CCc4ccc5c(c4)CCO5)cs3)c(OCCN3CCNC3=O)c2)nn1.O=C(O)C(F)(F)F [12r]	slow-binding inhibitors	–	1.2	23.8 ± 0.5	–	–
NCCNCc1nccn1-c1ccc(-c2nc(CCc3ccc(-c4ccccc4)cc3)cs2)c(OCCN2CCNC2=O)c1 [compound 3, reference compound]	–	–	2.7 and 2.7/2.7	5.3 ± 0.3	> 75	–
NCCCCc1cn(-c2ccc(-c3nc(-c4ccc(Oc5ccccc5)cc4)c(-c4ccccc4)s3)c(OCCN3CCNC3=O)c2)nn1.O=C(O)C(F)(F)F [19c, 1-(2-(5-(4-(4-Ammoniobutyl)-1H-1,2,3-triazol-1-yl)-2-(4-([4-phenyloxyphenyl]-1-yl)-5-phenylthiazol-2-yl)phenoxy)ethyl)imidazolidin-2-one 2,2,2-Trifluoroacetate]	–	> 75	–	–	–	–
